The subject of one experiment is PC-3. Description: Two-dose antiproliferative screening, SRB assay, PC-3. Format: cell-based. As to conditions: triplicates; for Growth Inhibition (%) PC-3 1 μM Average: 72 h; for inhibition at 1 µM / inhibition at 10 µM: Homo sapiens, PC-3, 72 h; for inhibition at 1 µM: read-out: Growth Inhibition (%) PC-3 1 μM Average; for inhibition at 10 µM: read-out: Growth Inhibition (%) PC-3 10 μM Average.

Experiment [1] has as its system COLO-205. Description: Two-dose antiproliferative screening, SRB assay, COLO-205. The conditions noted are these: triplicates; for Growth Inhibition (%) COLO-205 1 μM Average: 72 h; for inhibition at 1 µM / inhibition at 10 µM: Homo sapiens, COLO 205, 72 h; for inhibition at 1 µM: read-out: Growth Inhibition (%) COLO-205 1 μM Average; for inhibition at 10 µM: read-out: Growth Inhibition (%) COLO-205 10 μM Average. It is filed as cell-based, human.

For experiment [2], the system named is COLO-205. Description: IC50 against COLO-205, SRB assay. Format: cell-based. As to conditions: Homo sapiens, 0.001–100 μM. As for the experimental part: Cell viability was assessed by the sulforhodamine B (SRB) assay. Aliquots of cell suspension (5 × 10^3 cells, 100 μL) were transferred into 96 well plates and incubated in complete media for 24 h. Cells were treated with another aliquot media (100 μL) containing compounds 3a–f, 4a–f, 6a–f, 7a–f, 9a–b at concentrations of 1 and 10 μM). After 72 h of drug exposure, cells were fixed by replacing media with trichloroacetic acid (TCA, 10%, 150 μL) and incubated at 4 °C for 1 h. The TCA solution was removed, and the cells were washed five times with distilled water. Aliquots of SRB solution (0.4%w/v, 70 μL) were added and incubated in a dark place at room temperature for 10 min. Plates were washed three times with 1% acetic acid and allowed to air dry overnight. Then, a solution of TRIS base and TRIS HCl (TRIS buffer, 10 mM, 150 μL) was added to dissolve protein bound SRB stain. The absorbance was measured at 540 nm using BMGLABTECH®–FLUOstar omega micro-plate reader (Ortenberg, Germany).
The same procedures used to screen two-dose anticancer activities were applied in determining IC50 values against COLO-205 using SRB assay. Cells were maintained at Roswell Park Memorial Institute media (RPMI media). The test was performed using 0.001–100 μM of compounds 4a (IC261), 4b, 4d, 4e, 6e and 6f. IC50 values were calculated using the equation for Boltzman sigmoidal concentration–response curve using the nonlinear regression fitting models by GraphPad, Prism version 5 (GraphPad Software Inc., La Jolla, CA, USA).
On the technique in general: Sulforhodamine B stains cellular protein and so reports cell mass.

A further experiment has as its system A549 cell line. The experiment is described as follows: MTT assay for A549 cell line. It is filed as cell-based. As for the experimental part: MTT assay for A549 cell line. Cell Line cells were obtained from American Type Culture Collection. Cells were cultured using DMEM (Invitrogen/Life Technologies, Carlsbad, CA, USA) supplemented with 10% FBS (Hyclone, Logan, UT, USA), 10 μg/mL of insulin (Sigma, St. Louis, MI, USA), and 1% penicillin-streptomycin. All the other chemicals and reagents were from Sigma (St. Louis, MI, USA) or Invitrogen (Carlsbad, CA, USA). Cells were plated (cells density 1.2–1.8 × 10,000 cells/well) in a volume of 100 µL complete growth medium + 100 μL of the tested compound per well in a 96-well plate for 24 h before the application of MTT assay protocol as reported, Supplementary Materials.
Cell Line cells were obtained from American Type Culture Collection , cells were cultured using DMEM (Invitrogen/Life Technologies) supplemented with 10% FBS (Hyclone,), 10 ug/ml of insulin (Sigma), and 1% penicillin-streptomycin. All of the other chemicals and reagents were from Sigma, or Invitrogen.
Plate cells (cells density 1.2 – 1.8 × 10,000 cells/well) in a volume of 100µl complete growth medium + 100 ul of the tested compound per well in a 96-well plate for 24 hours before the MTT assay .
1. Remove culture medium to a centrifuge tube.
2. Briefly rinse the cell layer with 0.25% (w/v) Trypsin 0.53 mM EDTA solution to remove all traces of serum which contains Trypsin inhibitor.
3. Add 2.0 to 3.0 ml of Trypsin EDTA solution to flask and observe cells under an inverted microscope until cell layer is dispersed (usually within 5 to 15 minutes). […]
waiting for the cells to detach. Cells that are difficult to detach may be placed at 37°C […]
4. Add 6.0 to 8.0 mL of complete growth medium and aspirate cells by gently
5. […]
6. Spectrophotometrically measure absorbance at a wavelength of 570 nm. Measure the background absorbance of multiwell plates at 690 nm and subtract from the […] measurement. Tests performed in multiwell plates can be read using the appropriate type of plate reader or the contents of individual wells may be transferred to appropriate size cuvets for spectrophotometric measurement.
For orientation: Tetrazolium dyes change colour on reduction, which living cells bring about.

pIC50: −log10 of the molar value.

In the case of `COc1cc(OC)c(/C=C2/C(=O)Nc3ccccc32)c(OC)c1` [Compound 4a, (E)-3-(2,4,6-trimethoxybenzylidene)indolin-2-one, reference compound], in the experiment with PC-3, the “Growth Inhibition (%) PC-3 1 μM Average” value came to 59.19%, the inhibition at 1 µM was found to be 60% and the inhibition at 10 µM came out at 67.9%. Moreover, in the experiment with COLO-205 [1], the “Growth Inhibition (%) COLO-205 1 μM Average” value is listed as 63.60%, the inhibition at 1 µM was found to be 64% and the inhibition at 10 µM was determined as 77.5%. Further, the pIC50 in the experiment on COLO-205 [2] is 6.70. The pIC50 in the experiment on A549 cell line (Homo sapiens, A549) was 4.55. Moreover, the pIC50 in the experiment on A549 cell line (listed as 4a (IC261)) was 4.55.
Turning to `COc1cc(OC)c(/C=C2/C(=O)Nc3cc(Cl)ccc32)c(OC)c1` [Compound 4b, (E)-6-chloro-3-(2,4,6-trimethoxybenzylidene)indolin-2-one], in the experiment on PC-3, the “Growth Inhibition (%) PC-3 1 μM Average” value is 64.05%, the inhibition at 1 µM worked out at 65% and the inhibition at 10 µM came to 71.7%. For the same compound, in the experiment with COLO-205 [1], the “Growth Inhibition (%) COLO-205 1 μM Average” value is 73.32%, the inhibition at 1 µM turned out to be 74% and the inhibition at 10 µM was 82.5%. The compound also gave a pIC50 in the experiment with COLO-205 [2] of 6.70. Further, in the experiment with A549 cell line (Homo sapiens, A549), the pIC50 is 5.02.

By inhibition is commonly meant the change of the read-out against control, counted positive when it falls. What is called pIC50 is the IC50 on a negative log10 scale, so that one unit is a factor of ten. A high value points to a low IC50.

The values above are taken from PMC8620390, “New Multi-Targeted Antiproliferative Agents: Design and Synthesis of IC261-Based Oxindoles as Potential Tubulin, CK1 and EGFR Inhibitors” (Pharmaceuticals, 2021).
